The clearance is the rate of elimination divided by the concentration. A low value points to inefficient removal.

This note sets out measurements from ChEMBL document CHEMBL1155838, “Biphenyl amide p38 kinase inhibitors 3: Improvement of cellular and in vivo activity” (Bioorg Med Chem Lett, 2008).

Assay type in all cases: ADME, organism-based
Data set [1] can be described thus: Oral bioavailability in Lewis rat at […]. Conditions: in vivo.
Data set [2] can be described thus: Clearance in Lewis rat plasma at 0.5 mg/kg, iv. Details: dose 0.5 mg/kg, route intravenous.
A short description of data set [3]: Terminal half life in Lewis rat plasma at 0.5 mg/kg, iv. Details: dose 0.5 mg/kg, route intravenous. The note with it: read-out: beta t1/2 (converted).
A short description of data set [4]: Volume of distribution at steady state in Lewis rat at 0.5 mg/kg, iv. Set-up: dose 0.5 mg/kg, route intravenous. Conditions: in vivo, read-out: Vdss.

Structures are written as SMILES.

For `Cc1ccc(C(=O)NC2CC2)cc1-c1ccc(C(=O)NCC2CC2)cc1`, in data set [1], the bioavailability amounted to 113%. Also, the clearance in data set [2] was 6 mL/min/kg. Besides, the half-life in data set [3] was 1.3 h. Moreover, the Vd in data set [4] came out at 0.6 L/kg.
